Laboratory results reported in US4006240A, “Alcohol aversion process by enzyme inhibition” (priority 1975, dated 1977).

Key:
[1] = Dose without significant effect on water or total fluid intake; conditions: mouse, in vivo, ip; intraperitoneal injection at 12 hourly intervals, read from dose graph; read-out: Dose which has no significant effect on water or total fluid intake
Excerpt: The dose of the choline acetylase inhibitor when administered according to the present invention is selected to cause effective aversion to alcohol consumption. Effective aversion is intended to mean either the complete lack of compulsion to consume alcohol or at least a reduction of the compulsion to a point where the subject may consume alcohol in a strictly elective manner without being dependent thereon. The dose is also selected to be substantially free of undesirable side effects. By this is meant that the side effects are at most of a trivial nature and unimportant relative to the benefit derived from the treatment. One effect of excessive dosage with a choline acetylase inhibitor is a reduction in water consumption. […]
The dose of trans-4-[2-(1-naphthyl)vinyl]pyridine hydrochloride which has no significant effect on water or total fluid intake of these animals was determined to be 2 mg./kg. This was determined by intraperitoneal injection of trans-4-[2-(1-naphthyl)vinyl]pyridine hydrochloride at 12 hourly intervals during the test period at various dosage concentrations for various groups of mice. […]

C57B1/6J mice = experiment: Ethanol aversion in C57B1/6J mice, free choice of water and 5% ethanol; assay type: in vivo, mouse; conditions: for 5% alcohol daily consumption: 2 mg./kg. i.p. at 12 hourly intervals; for 5% alcohol daily consumption / Water daily consumption: N = 8
Procedure: Adult male C57B1/6J mice weighing 20-25 g. were then placed into individual cages equipped with two small drinking tubes, one filled with water and the other with 5% ethanol in water. Food, water and alcohol solution were available ad libitum and the daily consumption of each was recorded at 10 a.m. The positions of the tubes were interchanged daily and different tubes were ocassionally substituted. After a period of 4 days to establish a reference base for alcohol and water consumption respectively, the animals were treated by intraperitoneal injection with 2 mg./kg. of body weight of trans-4-[2-(1-naphthyl)vinyl]-pyridine hydrochloride at 12 hourly intervals on the 5th and 6th days. Drug treatment was terminated on the 6th day and the animals were kept for an additional two days. The average values of water, 5% alcohol, and total fluid intake for each of these 8 days of the experiment are shown in the following table.

[2] = test system: rats trained on a conditioned avoidance procedure; conditions: 2.0 mg./kg. intraperitoneally, 3 hr. session; cited from earlier work
[3] = day 5, 2 mg./kg. i.p. at 12 hourly intervals
[4] = day 6, 2 mg./kg. i.p. at 12 hourly intervals

| SMILES | NOAEL [1] [mg/kg] | Alcohol consumption as share of the daily fluid intake on the days of drug treatment (C57B1/6J mice; 5th and 6th days, 2 mg./kg. i.p., about 65% without drug) | Total daily fluid intake during the experimental period (C57B1/6J mice; 8-day experiment, drug on days 5 and 6) | 5% alcohol daily consumption (C57B1/6J mice; day 5 (first treatment day)) [mL/kg] | 5% alcohol as % of total daily fluid intake (C57B1/6J mice; [3]) [%] | Total daily fluid consumption (C57B1/6J mice; [3]) [mL/kg] | Water daily consumption (C57B1/6J mice; [3]) [mL/kg] | 5% alcohol daily consumption (C57B1/6J mice; day 6 (second treatment day)) [mL/kg] | 5% alcohol as % of total daily fluid intake (C57B1/6J mice; [4]) [%] | Total daily fluid consumption (C57B1/6J mice; [4]) [mL/kg] | Water daily consumption (C57B1/6J mice; [4]) [mL/kg] | Water and alcohol intakes on cessation of drug treatment (C57B1/6J mice; days 7 and 8, after drug treatment ended) | Increase in the response rate [2] [%] |
| --- | --- | --- | --- | --- | --- | --- | --- | --- | --- | --- | --- | --- | --- |
| C(=C\c1cccc2ccccc12)/c1ccncc1.Cl [N V P, trans-4-[2-(1-naphthyl)vinyl]pyridine hydrochloride] | 2 | about 42% | remained substantially constant | 60 ± 2 | 34 | 177 | 117 ± 4 | 82 ± 3 | 43 | 193 | 111 ± 4 | returned substantially to their pretreatment values |  |
| CC(N)Cc1ccccc1 (stereo not shown) [amphetamine] |  |  |  |  |  |  |  |  |  |  |  |  | ~75 |
